In one assay the target is human TLR9 (hTLR9) (Homo sapiens (Human), UniProt Q9NR96). The experiment in a line: TLR9 antagonist assay in HEK-Blue-hTLR9 cells (SEAP reporter, ODN 2006 agonist). The note with it: inhibition of hTLR9 dependent SEAP production, hTLR9 agonist such as ODN 2006, 1 μM, read-out: hTLR9 antagonism IC50. Type of assay: cell-based. From the text:
HEK-Blue™-hTLR9 cells were obtained from InvivoGen Inc. and used to determine test compound antagonism of human TLR9 (hTLR9) driven responses. HEK-Blue™-hTLR9 cells are designed for studying the stimulation of human TLR9 by monitoring the activation of NF-kB. As described by the manufacturer, “HEK-Blue™-hTLR9 cells were obtained by co-transfection of the hTLR9 gene and an optimized secreted embryonic alkaline phosphatase (SEAP) reporter gene into HEK293 cells. The SEAP reporter gene is placed under the control of the IFN-b minimal promoter fused to five NF-kB and AP-1 binding sites. Stimulation with a TLR9 ligand activates NF-kB and AP-1 which induces the production of SEAP. Levels of SEAP can be easily determined with QUANTI-Blue™ a detection medium that turns purple/blue in the presence of alkaline phosphatase”. […]
Invivogen's QUANTI-Blue™ was prepared following the manufacturer's instructions. […] SEAP levels were determined using a spectrophotometer at 620 nm.
The concentration dependent inhibition of hTLR9 dependent SEAP production was expressed as the concentration of compound which produced half the maximal level of SEAP induced by the hTLR agonist alone. Percent activity was calculated for each observation using the formula: % activity=((observed O.D.−background O.D.)/(agonist only O.D.−background O.D.))*100. […]

The target in a further assay is TLR9 (Mus musculus (Mouse), UniProt Q9EQU3). The experiment in a line: In vivo TLR knockdown: serum IL-12 after CpG ODN 1668 TLR9 agonist injection in C57Bl/6J mice. Particulars: male C57Bl/6J mice; single intraperitoneal dose; CpG ODN 1668 i.p. 1 hr later; serum IL-12 ELISA 3 hours post agonist. The procedure: The Effects of Test Articles on Toll-Like Receptor (TLR) Knockdown Following a Single Intraperitoneal Dose to Male C57Bl/6 Mice.
Chain of TLR9 (Q9EQU3 26-1032): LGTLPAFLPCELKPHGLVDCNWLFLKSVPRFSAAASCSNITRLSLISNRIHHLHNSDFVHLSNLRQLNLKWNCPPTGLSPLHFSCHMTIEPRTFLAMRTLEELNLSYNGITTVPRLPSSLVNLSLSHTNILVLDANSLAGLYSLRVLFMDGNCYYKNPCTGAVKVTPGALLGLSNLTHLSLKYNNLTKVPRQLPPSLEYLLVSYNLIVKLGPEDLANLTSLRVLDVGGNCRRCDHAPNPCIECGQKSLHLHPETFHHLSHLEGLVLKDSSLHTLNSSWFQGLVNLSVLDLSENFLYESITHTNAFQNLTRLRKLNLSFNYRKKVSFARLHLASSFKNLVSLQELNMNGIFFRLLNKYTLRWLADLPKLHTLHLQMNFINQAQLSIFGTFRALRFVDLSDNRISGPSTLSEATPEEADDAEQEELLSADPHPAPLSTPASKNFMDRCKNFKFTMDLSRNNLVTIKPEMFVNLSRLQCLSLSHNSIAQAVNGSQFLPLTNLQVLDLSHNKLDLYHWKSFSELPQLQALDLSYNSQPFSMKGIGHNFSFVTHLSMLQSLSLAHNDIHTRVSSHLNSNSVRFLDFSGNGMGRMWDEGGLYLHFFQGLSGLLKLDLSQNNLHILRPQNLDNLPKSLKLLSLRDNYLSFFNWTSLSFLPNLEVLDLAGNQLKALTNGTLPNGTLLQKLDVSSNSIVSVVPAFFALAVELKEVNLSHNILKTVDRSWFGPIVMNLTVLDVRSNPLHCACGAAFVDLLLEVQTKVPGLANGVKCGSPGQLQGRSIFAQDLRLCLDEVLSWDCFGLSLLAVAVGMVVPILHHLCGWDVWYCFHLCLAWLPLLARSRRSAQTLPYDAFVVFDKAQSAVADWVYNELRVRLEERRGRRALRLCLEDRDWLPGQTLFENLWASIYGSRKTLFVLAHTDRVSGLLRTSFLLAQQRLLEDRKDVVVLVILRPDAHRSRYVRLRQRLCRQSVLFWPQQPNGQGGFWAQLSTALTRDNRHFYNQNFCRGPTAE
Toll-Like Receptor (TLR) knockdown effect of test articles was evaluated in a C57Bl/6J mouse. Primary end points included a terminal blood collection for analysis of cytokine production in response to CpG-DNA TLR9 agonist injection. Male C57Bl/6J mice, at ˜8 weeks of age from Jackson Laboratories were used. Test groups were 3 mice per treatment group and the groups were administered test article in a series of descending doses within the range of 400 μg to 10 μg. Test article treatment was dosed at T=0 hr by intraperitoneal injection. Agonist (CpG ODN 1668) treatment was dosed one hour later, T=1 hr by intraperitoneal injection. Necropsy was performed 3 hours post agonist treatment, T=4 hr. Blood samples were collected into serum separator tubes, allowed to clot at room temperature for at least 20 minutes, centrifuged at ambient temperature at 3000 g for 10 minutes, and the serum was extracted. ELISA was performed to determine murine IL-12 levels following manufacture's protocol (BioLegend Inc.). Serum IL-12 levels were calculated and plotted versus administered dose of antagonist and inhibitory dose at 50% (ID50) was determined.
(In general: In an ELISA, binding on a coated surface is turned into a signal by an enzyme label.)

Chain of human TLR9 (hTLR9) (Q9NR96 26-1032): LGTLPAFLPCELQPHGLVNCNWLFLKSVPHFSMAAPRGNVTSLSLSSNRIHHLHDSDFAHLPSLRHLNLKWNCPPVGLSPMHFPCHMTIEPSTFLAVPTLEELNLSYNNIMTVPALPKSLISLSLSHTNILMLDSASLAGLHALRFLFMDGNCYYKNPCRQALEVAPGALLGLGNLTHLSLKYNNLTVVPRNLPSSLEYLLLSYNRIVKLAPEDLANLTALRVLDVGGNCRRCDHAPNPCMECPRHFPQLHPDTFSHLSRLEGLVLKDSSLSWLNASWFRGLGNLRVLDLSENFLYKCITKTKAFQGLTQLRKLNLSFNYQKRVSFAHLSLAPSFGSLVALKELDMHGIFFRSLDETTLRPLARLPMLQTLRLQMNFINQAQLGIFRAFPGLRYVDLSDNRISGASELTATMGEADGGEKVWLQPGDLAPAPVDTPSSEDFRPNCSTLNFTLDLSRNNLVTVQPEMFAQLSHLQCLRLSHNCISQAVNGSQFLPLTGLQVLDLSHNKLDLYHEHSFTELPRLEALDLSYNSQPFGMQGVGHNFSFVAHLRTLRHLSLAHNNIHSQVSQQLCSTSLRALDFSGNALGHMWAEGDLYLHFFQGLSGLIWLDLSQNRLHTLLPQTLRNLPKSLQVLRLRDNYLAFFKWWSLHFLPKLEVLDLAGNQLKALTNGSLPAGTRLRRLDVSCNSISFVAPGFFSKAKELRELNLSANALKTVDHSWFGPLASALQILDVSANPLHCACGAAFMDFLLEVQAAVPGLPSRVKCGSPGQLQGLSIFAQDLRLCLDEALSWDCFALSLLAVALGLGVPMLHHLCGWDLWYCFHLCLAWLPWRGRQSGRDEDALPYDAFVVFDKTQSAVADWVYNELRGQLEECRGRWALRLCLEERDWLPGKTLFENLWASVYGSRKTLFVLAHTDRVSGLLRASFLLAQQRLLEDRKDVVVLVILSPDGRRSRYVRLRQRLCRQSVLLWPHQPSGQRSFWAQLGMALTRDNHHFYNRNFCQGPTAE

`CN1CCN(CCn2c(O)nc3c(NCCN4CCOCC4)nc(-c4ccccc4)nc32)CC1` [Example 63]: on human TLR9 (hTLR9), the IC50 (in general, the point on the concentration scale where inhibition reaches its midpoint) worked out at 497 nM.
Take `CN1CCN(CCNc2nc(-c3ccccc3)nc3c2nc(O)n3CCN2CCOCC2)CC1` [Example 57]: at human TLR9 (hTLR9), the IC50 was 271 nM. Further, the “In vivo TLR antagonism ID50 (inhibitory dose at 50% of serum IL-12)” value on TLR9 came out at 348 µg.

(Values after patent US9353115B2, “Immune system modulators” (JANUS BIOTHERAPEUTICS, INC., priority 2011, dated 2016).)
